Laboratory results from US6878711B2, “Indole derivatives as PDE5-inhibitors” (Lilly Icos LLC, priority 2000, dated 2005).

How the values were obtained:
human recombinant PDE5 = human recombinant PDE5 (Homo sapiens, UniProt O76074); test: Inhibitory effect on cGMP-PDE (one-step assay, 8-[H3]-cGMP)
PDE5 (bovine aorta) = molecular target: T1, PDE5 (bovine aorta) (Bos taurus, UniProt Q28156); test: Inhibitory effect on cGMP-PDE, enzyme from bovine aorta; assay type: biochemical; details: vs. bovine aorta
T1 construct: from tissue; host or cells: bovine aorta
From the text: Biophys. Acta, 384, 430 (1975).

SMILES	melting point [°C]	IC50 (human recombinant PDE5) [nM]	also measured
CN1CC(=S)N2[C@H](c3ccc4c(c3)OCO4)c3[nH]c4ccccc4c3C[C@@H]2C1=S	158 to 162		
CN1CCN2[C@H](c3ccc4c(c3)OCO4)c3[nH]c4ccccc4c3C[C@@H]2C1=O [Example 1, (6R,12aR)-6-Benzo[1,3]dioxol-5-yl-2-methyl-3,4,6,7,12,12a-hexahydro-2H-pyrazino[1′,2′:1,6]pyrido[3,4-b]indole-1-one]		54	
CN1CCN2[C@@H](c3ccc4c(c3)OCO4)c3[nH]c4ccccc4c3C[C@@H]2C1=O [Example 2, (6S,12aR)-6-Benzo[1,3]dioxol-5-yl-2-methyl-3,4,6,7,12,12a-hexahydro-2H-pyrazino-[1′2′:1,6]pyrido[3,4-b]indol-1-one]		575	
CN1CCN2[C@@H](c3ccc4c(c3)OCO4)c3[nH]c4ccccc4c3C[C@H]2C1=O [Example 3]			IC50 (PDE5 (bovine aorta)): 100 nM
O=C1CNC[C@H]2Cc3c([nH]c4ccccc34)[C@@H](c3ccc4c(c3)OCO4)N12 [Example 4]		2.3	
CN1CC(=S)N2[C@H](c3ccc4c(c3)OCO4)c3[nH]c4ccccc4c3C[C@H]2C1=S [Example 6, (6R,12aS)-6-Benzo[1,3]dioxol-5-yl-2-methyl 2,3,6,7,12,12a-hexahydropyrazino[1′,2′:1,6]pyrido[3,4-b]indole-1,4-dithione]	177 to 182		
